The values that follow come from patent US20260159512A1, “BCAT2 INHIBITORS” (AGIOS PHARMACEUTICALS, INC., priority 2021, published 2026).

Each structure is given as a SMILES string. pIC50: −log10 of the molar value.

Holding throughout (details): average where tested multiple times
One assay deals with T1, hBCAT1 (Homo sapiens, UniProt P54687).
T1 sequence (P54687 1-386): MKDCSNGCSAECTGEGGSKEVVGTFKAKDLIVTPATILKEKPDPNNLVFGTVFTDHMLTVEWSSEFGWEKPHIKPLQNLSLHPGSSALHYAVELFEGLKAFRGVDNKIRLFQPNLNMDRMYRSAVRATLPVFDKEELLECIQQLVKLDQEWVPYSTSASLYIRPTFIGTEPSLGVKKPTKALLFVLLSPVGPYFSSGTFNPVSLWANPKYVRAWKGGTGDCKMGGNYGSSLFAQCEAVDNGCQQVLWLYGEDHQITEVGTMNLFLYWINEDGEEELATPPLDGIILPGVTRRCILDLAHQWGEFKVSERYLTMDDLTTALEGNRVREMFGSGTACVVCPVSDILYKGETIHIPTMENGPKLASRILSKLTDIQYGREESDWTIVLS
The assay can be described thus: BCAT1 in vitro enzyme inhibition assay (resazurin/diaphorase-coupled fluorescence). Type of assay: biochemical. In outline: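 Ten-point, 3-fold compound series (top final 100 μM, delivered 1:50 from 50× DMSO stocks) tested against hBCAT1. Inhibition detected via diaphorase-coupled resazurin fluorescence, duplicate wells, with values from repeated runs averaged.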

The target of assay [1] is T2, BCAT2 (Homo sapiens, UniProt O15382).
T2 sequence (O15382 28-392): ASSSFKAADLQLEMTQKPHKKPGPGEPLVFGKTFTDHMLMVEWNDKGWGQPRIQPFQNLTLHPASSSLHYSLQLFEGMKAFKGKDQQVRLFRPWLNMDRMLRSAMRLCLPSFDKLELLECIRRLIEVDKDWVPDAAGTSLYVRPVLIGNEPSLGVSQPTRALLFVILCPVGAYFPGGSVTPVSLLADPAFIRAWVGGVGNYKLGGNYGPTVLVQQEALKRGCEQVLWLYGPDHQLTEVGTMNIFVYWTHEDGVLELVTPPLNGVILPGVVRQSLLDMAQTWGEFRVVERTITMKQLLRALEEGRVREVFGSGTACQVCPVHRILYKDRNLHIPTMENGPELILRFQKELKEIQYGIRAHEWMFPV
The assay can be described thus: BCAT2 in vitro cell inhibition using engineered A549 cells (KMV cell assay, 13C6-KMV by LC-MS/MS). Type of assay: cell-based. Details: The result was an engineered A549 cell line that expressed endogenous BCAT2; endogenous in cells; host or cells: A549 cells with MUT and BCAT1 knocked out by CRISPR/CAS9.

In assay [2] the target is T2, BCAT2. Put plainly: BCAT2 in vitro enzyme inhibition assay (resazurin/diaphorase-coupled fluorescence). Type of assay: biochemical. In outline: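 Coupled fluorescence readout: glutamate formed from L-leucine/α-ketoglutarate transamination drives GDH/NAD/diaphorase reduction of resazurin (Ex 540/Em 590). Human BCAT2 was first exposed 1 h at room temperature to compound, top final 100 μM in 3-fold, 10-point series; substrate reaction ran 1 h before SDS quench, in technical duplicate with DMSO max and enzyme-free min controls.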
Background: Alamar Blue is a resazurin reagent that responds to reducing activity.

For the molecule `NCc1ccccc1-c1nc2cnc(-c3nc[nH]n3)cc2n1[C@@H]1CCC[C@H](NC(=O)c2ncc(Cl)s2)C1` [Example 366, N-((1S,3R)-3-(2-(2-(aminomethyl)phenyl)-6-(1H-1,2,4-triazol-3-yl)-1H-imidazo[4,5-c]pyridin-1-yl)cyclohexyl)-5-chlorothiazole-2-carboxamide], the pIC50 against hBCAT1 was 6.00 to 6.30; on BCAT2 [1], < 6.00; at BCAT2 [2] it was ≥ 7.00.
As to `O=C(N[C@H]1CCC[C@@H](n2c(-c3ncccc3F)nc3cnc(-c4ncco4)cc32)C1)c1ccc(Br)s1` [Example 6, 5-bromo-N-((1S,3R)-3-(2-(3-fluoropyridin-2-yl)-6-(oxazol-2-yl)-1H-imidazo[4,5-c]pyridin-1-yl)cyclohexyl)thiophene-2-carboxamide], the pIC50 on hBCAT1 is > 6.30; against BCAT2 [1], ≥ 7.00; against BCAT2 [2] it was ≥ 7.00.
Regarding `CC(C)Cc1nc2cnc(-c3ccccn3)cc2n1[C@@H]1CCC[C@H](NC(=O)c2ncc(Cl)s2)[C@H]1O` [Example 235, 5-chloro-N-((1S,2R,3R)-2-hydroxy-3-(2-isobutyl-6-(pyridin-2-yl)-1H-imidazo[4,5-c]pyridin-1-yl)cyclohexyl)thiazole-2-carboxamide], the pIC50 is > 6.30 against hBCAT1, ≥ 7.00 at BCAT2 [1] and ≥ 7.00 at BCAT2 [2].
Take `CC(C)Cc1nc2cnc(-c3nc4ccccc4o3)cc2n1[C@@H]1CCC[C@H](NC(=O)c2ncc(Cl)s2)C1` [Example 324, N-((1S,3R)-3-(6-(benzo[d]oxazol-2-yl)-2-isobutyl-1H-imidazo[4,5-c]pyridin-1-yl)cyclohexyl)-5-chlorothiazole-2-carboxamide]: the pIC50 on hBCAT1 is 5.30 to 6.00; on BCAT2 [1], 6.30 to 7.00; at BCAT2 [2], ≥ 7.00.
For `O=C(N[C@H]1CCC[C@@H](n2c(C3CCCOC3)nc3cnc(-c4nc[nH]n4)cc32)C1)c1ncc(Cl)s1` (single isomer, unassigned) [Example 103], in that order: 6.00 to 6.30, 6.30 to 7.00 and ≥ 7.00.
The matching figures for `CC(C)C(O)c1nc2cnc(-c3nc[nH]n3)cc2n1[C@@H]1CCC[C@H](NC(=O)c2ncc(Cl)s2)C1` (single isomer, unassigned) [Example 183]: > 6.30, 6.30 to 7.00 and ≥ 7.00.
As for `CC(=O)N1CC(NC(=O)c2ccc(Br)s2)CC(n2c(-c3ccccn3)nc3ccc(-c4ncon4)cc32)C1` (stereo not drawn) [Example 286, N-(5-(6-(1,2,4-oxadiazol-3-yl)-2-(pyridin-2-yl)-1H-benzo[d]imidazol-1-yl)-1-acetylpiperidin-3-yl)-5-bromothiophene-2-carboxamide], the pIC50 was 5.30 to 6.00 against hBCAT1, 6.30 to 7.00 against BCAT2 [1] and ≥ 7.00 on BCAT2 [2].
Regarding `O=C(N[C@H]1CCCC[C@@H](n2c(-c3ccccc3F)nc3cnc(-c4nnc[nH]4)cc32)C1)c1ncc(Cl)s1` (single isomer, unassigned) [Example 88, 5-chloro-N-(3-(2-(2-fluorophenyl)-6-(4H-1,2,4-triazol-3-yl)-1H-imidazo[4,5-c]pyridin-1-yl)cycloheptyl)thiazole-2-carboxamide], the pIC50 is > 6.30 against hBCAT1, ≥ 7.00 against BCAT2 [1] and ≥ 7.00 against BCAT2 [2].
`CC(C)Cc1nc2cnc(-n3ccc(N)n3)cc2n1[C@@H]1CCC[C@H](NC(=O)c2ncc(Cl)s2)C1` [Example 334, N-((1S,3R)-3-(6-(3-amino-1H-pyrazol-1-yl)-2-isobutyl-1H-imidazo[4,5-c]pyridin-1-yl)cyclohexyl)-5-chlorothiazole-2-carboxamide]: the pIC50 is > 6.30 against hBCAT1, 6.00 to 6.30 at BCAT2 [1] and ≥ 7.00 at BCAT2 [2].
Regarding `CC(C)Cc1nc2cnc(-c3ccn(C)n3)cc2n1[C@@H]1CCC[C@H](NC(=O)c2ncc(Cl)s2)[C@H]1O` [Example 223, 5-chloro-N-((1S,2R,3R)-2-hydroxy-3-(2-isobutyl-6-(1-methyl-1H-pyrazol-3-yl)-1H-imidazo[4,5-c]pyridin-1-yl)cyclohexyl)thiazole-2-carboxamide], the pIC50 on hBCAT1 was > 6.30; against BCAT2 [1] it was 6.30 to 7.00; against BCAT2 [2], ≥ 7.00.
Take `O=C(N[C@H]1CCC[C@@H](n2c(CC3(C(F)(F)F)CC3)nc3cnc(-c4nc[nH]n4)cc32)C1)c1ncc(Cl)s1` [Example 325, N-((1S,3R)-3-(6-(1H-1,2,4-triazol-3-yl)-2-((1-(trifluoromethyl)cyclopropyl)methyl)-1H-imidazo[4,5-c]pyridin-1-yl)cyclohexyl)-5-chlorothiazole-2-carboxamide]: the pIC50 is > 6.30 on hBCAT1, ≥ 7.00 at BCAT2 [1] and ≥ 7.00 on BCAT2 [2].
Turning to `CC(C)Cc1nc2cnc(-c3nc[nH]n3)cc2n1[C@@H]1CCC[C@H](NC(=O)c2ccc(Cl)s2)[C@H]1O` [Example 401, 5-chloro-N-((1S,2R,3R)-2-hydroxy-3-(2-isobutyl-6-(1H-1,2,4-triazol-3-yl)-1H-imidazo[4,5-c]pyridin-1-yl)cyclohexyl)thiophene-2-carboxamide], the pIC50 was > 6.30 on hBCAT1, ≥ 7.00 at BCAT2 [1] and ≥ 7.00 on BCAT2 [2].
On to `O=C(N[C@H]1C[C@H](O)C[C@@H](n2c(-c3ccccc3F)nc3cnc(-c4ccn[nH]4)cc32)C1)c1ncc(Cl)s1` (single isomer, unassigned) [Example 258], for which the pIC50 is > 6.30 at hBCAT1, ≥ 7.00 against BCAT2 [1] and ≥ 7.00 against BCAT2 [2].
Take `CC(C)Cc1nc2cnc(-c3nc(Cl)cs3)cc2n1[C@@H]1CCC[C@H](NC(=O)c2ncc(Cl)s2)C1` [Example 329, 5-chloro-N-((1S,3R)-3-(6-(4-chlorothiazol-2-yl)-2-isobutyl-1H-imidazo[4,5-c]pyridin-1-yl)cyclohexyl)thiazole-2-carboxamide]: the pIC50 against hBCAT1 is 6.00 to 6.30; against BCAT2 [1], 6.00 to 6.30; against BCAT2 [2] it was ≥ 7.00.
Consider `CC(C)C(F)c1nc2cnc(-c3ccccn3)cc2n1[C@@H]1CCC[C@H](NC(=O)c2ncc(Cl)s2)C1` (stereo partly drawn) [Example 322, 5-chloro-N-((1S,3R)-3-(2-(1-fluoro-2-methylpropyl)-6-(pyridin-2-yl)-1H-imidazo[4,5-c]pyridin-1-yl)cyclohexyl)thiazole-2-carboxamide], for which the pIC50 at hBCAT1 was 5.30 to 6.00; at BCAT2 [1], 6.00 to 6.30; at BCAT2 [2], ≥ 7.00.
The matching figures for `COc1ccc(F)c(-c2nc3cnc(-c4nc[nH]n4)cc3n2[C@@H]2CCC[C@H](NC(=O)c3ccc(Cl)s3)C2)c1` [Example 343, 5-chloro-N-((1S,3R)-3-(2-(2-fluoro-5-methoxyphenyl)-6-(1H-1,2,4-triazol-3-yl)-1H-imidazo[4,5-c]pyridin-1-yl)cyclohexyl)thiophene-2-carboxamide]: 5.30 to 6.00, 6.30 to 7.00 and ≥ 7.00.
As for `O=C(N[C@H]1CCC[C@@H](n2c(-c3ccccn3)nc3cnc(-n4nccn4)cc32)C1)c1ncc(C(F)F)s1` [Example 21, 5-(difluoromethyl)-N-((1S,3R)-3-(2-(pyridin-2-yl)-6-(2H-1,2,3-triazol-2-yl)-1H-imidazo[4,5-c]pyridin-1-yl)cyclohexyl)thiazole-2-carboxamide], the pIC50 was 6.00 to 6.30 against hBCAT1, 6.30 to 7.00 at BCAT2 [1] and ≥ 7.00 against BCAT2 [2].
The matching figures for `CC(C)Cc1nc2cnc(-n3cc(F)cn3)cc2n1[C@@H]1C[C@@H](O)C[C@H](NC(=O)c2ncc(Cl)s2)C1` [Example 221, 5-chloro-N-((1R,3S,5S)-3-(6-(4-fluoro-1H-pyrazol-1-yl)-2-isobutyl-1H-imidazo[4,5-c]pyridin-1-yl)-5-hydroxycyclohexyl)thiazole-2-carboxamide]: > 6.30, 6.30 to 7.00 and ≥ 7.00.
For `CO[C@H]1C[C@H](NC(=O)c2ncc(Cl)s2)C[C@H](n2c(-c3ccccc3F)nc3cnc(-c4nc[nH]n4)cc32)C1` (single isomer, unassigned) [Example 218], in that order: > 6.30, ≥ 7.00 and ≥ 7.00.

Usually pIC50 stands for the negative decadic logarithm of the IC50, by convention in mol/L.
